Measured values reported in patent US7205382B2, “Peptides, the production and use thereof for binding immunoglobulins” (Fresenius Medical Care Affina GmbH, priority 2000, dated 2007).
Bridge positions count the residues as written; N and C are the ends. Square brackets hold non-standard residues; d marks the D form. Ends that are not written are not given here. cellulose = not defined here; βAla = NCCC(=O)O

Columns and labels:
Format in all cases: binding
Set-up in all cases: key: No binding of immunoglobulin for the defined peptide variant, detection negative: 0; Binding of immunoglobulin for the defined peptide variant, detection positive: +
[1] = system: immunoglobulins in human plasma; test: Cellulose-immobilized 13-mer peptide variants incubated with human plasma, anti-human IgG-AP detection; conditions: human plasma as sample, diluted 1:10,000 in blocking buffer, 3 h room temperature
Procedure, shortened: (§1)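 Read-out was colorimetric NBT/BCIP staining (developing buffer pH 9.5) after alkaline phosphatase-conjugated anti-human IgG at 1.2 μg/ml. Before this, the immobilized peptides had been incubated 3 h at room temperature with 1 μg/ml IgG-Fc, 1:10,000 diluted serum, or albumin-containing blocking buffer without addition.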

human IgG-Fc = test: Cellulose-immobilized 13-mer peptide variants incubated with human IgG-Fc, anti-human IgG-AP detection; conditions: IgG-Fc 1 μg/ml in blocking buffer, 3 h room temperature
Procedure, shortened: as §1

serum albumin = test: Cellulose-immobilized 13-mer peptide variants incubated with serum albumin (negative control), anti-human IgG-AP detection; conditions: blocking buffer without addition, 3 h room temperature
Procedure, shortened: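 SPOT-type 13-mer peptides on cellulose with a (βA)(βA) spacer, blocked in 5% saccharose/4% BSA in T-TBS pH 8.0. Incubated 3 h at RT with human IgG-Fc (1 μg/ml) or human serum/plasma (1:10,000), or with blocking buffer alone as the albumin specificity control. Bound IgG detected with AP-anti-human IgG (1.2 μg/ml) and NBT/BCIP colorimetric development at pH 9.5.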

Q: “05G: cellulose-bound 13-mer variant DCAWGLGELVWCT-(βA)(βA) (disulfide 2-12 (inferred); not fully specified (N-terminus, C-terminus); printed as DCAWGLGELVWCT-(βA)(βA); also: cellulose-bound)” was tested. Which “Result for incubation with human plasma (immunoglobulin binding detection)” value (“Result for incubation with human plasma” below) [1] did it give?
A: The value was 0.

Q: What about the “Result for incubation with human IgG-Fc (immunoglobulin binding detection)” value (“Result for incubation with human IgG-Fc” for short) (human IgG-Fc) of the same substance?
A: The value was 0.

Q: What about the “Result for incubation with serum albumin (immunoglobulin binding detection)” value (from here on “Result for incubation with serum albumin”) (serum albumin) of the same substance?
A: The value was 0.

Q: “03P: cellulose-bound 13-mer variant DCPWHLGELVWCT-(βA)(βA) (DCPWHLGELVWCT-{βAla-βAla-cellulose}; disulfide 2-12 (inferred); reading uncertain; also: printed as DCPWHLGELVWCT-(βA)(βA))” was tested. Which “Result for incubation with human plasma” value [1] did it give?
A: The value was 0.

Q: What about the “Result for incubation with human IgG-Fc” value (human IgG-Fc) of the same substance?
A: Its value is 0.

Q: And the “Result for incubation with serum albumin” value (serum albumin)?
A: Its value is 0.

Q: “08N: cellulose-bound 13-mer variant DCAWHLGNLVWCT-(βA)(βA) (DCAWHLGNLVWCT-{βAla-βAla-cellulose}; disulfide 2-12 (inferred); not fully specified (N-terminus); printed as DCAWHLGNLVWCT-(βA)(βA); reading uncertain)” was tested. Which “Result for incubation with human plasma” value [1] did it give?
A: Its value is “+”.

Q: And the “Result for incubation with human IgG-Fc” value (human IgG-Fc)?
A: Its value is “+”.

Q: What about the “Result for incubation with serum albumin” value (serum albumin) of the same substance?
A: The value was 0.

Q: How did the “Result for incubation with human plasma” value [1] turn out when “03V: cellulose-bound 13-mer variant DCVWHLGELVWCT-(βA)(βA) (DCVWHLGELVWCT-{βAla-βAla-cellulose}; disulfide 2-12 (inferred); reading uncertain; also: printed as DCVWHLGELVWCT-(βA)(βA))” was run?
A: The value was 0.

Q: What about the “Result for incubation with human IgG-Fc” value (human IgG-Fc) of the same substance?
A: Its value is 0.

Q: What about the “Result for incubation with serum albumin” value (serum albumin) of the same substance?
A: Its value is 0.

Q: “11I: cellulose-bound 13-mer variant DCAWHLGELVICT-(βA)(βA)” was tested. Which “Result for incubation with human plasma” value [1] did it give?
A: The value was 0.

Q: What about the “Result for incubation with human IgG-Fc” value (human IgG-Fc) of the same substance?
A: Its value is 0.

Q: What about the “Result for incubation with serum albumin” value (serum albumin) of the same substance?
A: The value was 0.

Q: What does the source list for “07K: cellulose-bound 13-mer variant DCAWHLKELVWCT-(βA)(βA) (DCAWHLKELVWCT-{βAla-βAla-cellulose}; disulfide 2-12 (inferred); not fully specified (N-terminus); printed as DCAWHLKELVWCT-(βA)(βA); reading uncertain)”?
A: Result for incubation with human plasma (immunoglobulin binding detection) [1]: 0; Result for incubation with human IgG-Fc (immunoglobulin binding detection) (human IgG-Fc): 0; Result for incubation with serum albumin (immunoglobulin binding detection) (serum albumin): 0

Q: Which results are given for “08T: cellulose-bound 13-mer variant DCAWHLGTLVWCT-(βA)(βA) (DCAWHLGTLVWCT-{βAla-βAla-cellulose}; disulfide 2-12 (inferred); reading uncertain; also: printed as DCAWHLGTLVWCT-(βA)(βA))”?
A: Result for incubation with human plasma (immunoglobulin binding detection) [1]: 0; Result for incubation with human IgG-Fc (immunoglobulin binding detection) (human IgG-Fc): 0; Result for incubation with serum albumin (immunoglobulin binding detection) (serum albumin): 0

Q: Which “Result for incubation with human plasma” value [1] does the source give for “06C: cellulose-bound 13-mer variant DCAWHCGELVWCT-(βA)(βA) (DCAWHCGELVWCT[βAla][βAla]; not fully specified (N-terminus); printed as DCAWHCGELVWCT-(βA)(βA); cysteine pairing not given here; also: cellulose-bound)” here?
A: The value was 0.

Q: What about the “Result for incubation with human IgG-Fc” value (human IgG-Fc) of the same substance?
A: Its value is 0.

Q: What about the “Result for incubation with serum albumin” value (serum albumin) of the same substance?
A: The value was 0.

Q: With “08K: cellulose-bound 13-mer variant DCAWHLGKLVWCT-(βA)(βA) (DCAWHLGKLVWCT-{βAla-βAla-cellulose}; disulfide 2-12 (inferred); not fully specified (N-terminus); printed as DCAWHLGKLVWCT-(βA)(βA); reading uncertain)” as the substance, how does the “Result for incubation with human plasma” value [1] read?
A: The value was “+”.

Q: And the “Result for incubation with human IgG-Fc” value (human IgG-Fc)?
A: Its value is “+”.

Q: And the “Result for incubation with serum albumin” value (serum albumin)?
A: Its value is 0.

Q: With “05I: cellulose-bound 13-mer variant DCAWILGELVWCT-(βA)(βA) (disulfide 2-12 (inferred); not fully specified (N-terminus, C-terminus); printed as DCAWILGELVWCT-(βA)(βA); also: cellulose-bound)” as the substance, how does the “Result for incubation with human plasma” value [1] read?
A: Its value is 0.

Q: What about the “Result for incubation with human IgG-Fc” value (human IgG-Fc) of the same substance?
A: The value was 0.

Q: What about the “Result for incubation with serum albumin” value (serum albumin) of the same substance?
A: The value was 0.

Q: Which “Result for incubation with human plasma” value [1] does the source give for “09P: cellulose-bound 13-mer variant DCAWHLGEPVWCT-(βA)(βA) (DCAWHLGEPVWCT-{βAla-βAla-cellulose}; disulfide 2-12 (inferred); reading uncertain; also: printed as DCAWHLGEPVWCT-(βA)(βA))” here?
A: Its value is 0.

Q: And the “Result for incubation with human IgG-Fc” value (human IgG-Fc)?
A: The value was “+”.

Q: And the “Result for incubation with serum albumin” value (serum albumin)?
A: The value was 0.

Q: With “12K: cellulose-bound 13-mer variant DCAWHLGELVWKT-(βA)(βA) (DCAWHLGELVWKT-{βAla-βAla-cellulose}; not fully specified; printed as DCAWHLGELVWKT-(βA)(βA); reading uncertain)” as the substance, how does the “Result for incubation with human plasma” value [1] read?
A: Its value is 0.

Q: And the “Result for incubation with human IgG-Fc” value (human IgG-Fc)?
A: The value was 0.

Q: What about the “Result for incubation with serum albumin” value (serum albumin) of the same substance?
A: Its value is 0.

Q: Which results are given for “07D: cellulose-bound 13-mer variant DCAWHLDELVWCT-(βA)(βA) (DCAWHLDELVWCT-{βAla-βAla-cellulose}; disulfide 2-12 (inferred); not fully specified (N-terminus); printed as DCAWHLDELVWCT-(βA)(βA); reading uncertain)”?
A: Result for incubation with human plasma (immunoglobulin binding detection) [1]: +; Result for incubation with human IgG-Fc (immunoglobulin binding detection) (human IgG-Fc): +; Result for incubation with serum albumin (immunoglobulin binding detection) (serum albumin): 0

Q: What does the source list for “10P: cellulose-bound 13-mer variant DCAWHLGELPWCT-(βA)(βA) (DCAWHLGELPWCT-{βAla-βAla-cellulose}; disulfide 2-12 (inferred); reading uncertain; also: printed as DCAWHLGELPWCT-(βA)(βA))”?
A: Result for incubation with human plasma (immunoglobulin binding detection) [1]: 0; Result for incubation with human IgG-Fc (immunoglobulin binding detection) (human IgG-Fc): 0; Result for incubation with serum albumin (immunoglobulin binding detection) (serum albumin): 0

Q: What does the source list for “09M: cellulose-bound 13-mer variant DCAWHLGEMVWCT-(βA)(βA) (DCAWHLGEMVWCT-{βAla-βAla-cellulose}; disulfide 2-12 (inferred); reading uncertain; also: printed as DCAWHLGEMVWCT-(βA)(βA))”?
A: Result for incubation with human plasma (immunoglobulin binding detection) [1]: 0; Result for incubation with human IgG-Fc (immunoglobulin binding detection) (human IgG-Fc): +; Result for incubation with serum albumin (immunoglobulin binding detection) (serum albumin): 0

Q: For “02E: cellulose-bound 13-mer variant DEAWHLGELVWCT-(βA)(βA) (DEAWHLGELVWCT[βAla][βAla]; not fully specified; printed as DEAWHLGELVWCT-(βA)(βA); also: cellulose-bound)”, which “Result for incubation with human plasma” value [1] is on record?
A: Its value is 0.

Q: What about the “Result for incubation with human IgG-Fc” value (human IgG-Fc) of the same substance?
A: The value was 0.

Q: And the “Result for incubation with serum albumin” value (serum albumin)?
A: The value was 0.

Q: What does the source list for “07Y: cellulose-bound 13-mer variant DCAWHLYELVWCT-(βA)(βA) (DCAWHLYELVWCT-{βAla-βAla-cellulose}; disulfide 2-12 (inferred); not fully specified (N-terminus); printed as DCAWHLYELVWCT-(βA)(βA); reading uncertain)”?
A: Result for incubation with human plasma (immunoglobulin binding detection) [1]: 0; Result for incubation with human IgG-Fc (immunoglobulin binding detection) (human IgG-Fc): 0; Result for incubation with serum albumin (immunoglobulin binding detection) (serum albumin): 0

Q: What does the source list for “05N: cellulose-bound 13-mer variant DCAWNLGELVWCT-(βA)(βA) (disulfide 2-12 (inferred); not fully specified (N-terminus, C-terminus); printed as DCAWNLGELVWCT-(βA)(βA); also: cellulose-bound)”?
A: Result for incubation with human plasma (immunoglobulin binding detection) [1]: 0; Result for incubation with human IgG-Fc (immunoglobulin binding detection) (human IgG-Fc): 0; Result for incubation with serum albumin (immunoglobulin binding detection) (serum albumin): 0

Q: What does the source list for “07L: cellulose-bound 13-mer variant DCAWHLLELVWCT-(βA)(βA) (DCAWHLLELVWCT-{βAla-βAla-cellulose}; disulfide 2-12 (inferred); not fully specified (N-terminus); printed as DCAWHLLELVWCT-(βA)(βA); reading uncertain)”?
A: Result for incubation with human plasma (immunoglobulin binding detection) [1]: 0; Result for incubation with human IgG-Fc (immunoglobulin binding detection) (human IgG-Fc): 0; Result for incubation with serum albumin (immunoglobulin binding detection) (serum albumin): 0

Q: Which results are given for “09K: cellulose-bound 13-mer variant DCAWHLGEKVWCT-(βA)(βA) (DCAWHLGEKVWCT-{βAla-βAla-cellulose}; disulfide 2-12 (inferred); reading uncertain; also: printed as DCAWHLGEKVWCT-(βA)(βA))”?
A: Result for incubation with human plasma (immunoglobulin binding detection) [1]: +; Result for incubation with human IgG-Fc (immunoglobulin binding detection) (human IgG-Fc): +; Result for incubation with serum albumin (immunoglobulin binding detection) (serum albumin): 0

Q: Which “Result for incubation with human plasma” value [1] does the source give for “07M: cellulose-bound 13-mer variant DCAWHLMELVWCT-(βA)(βA) (DCAWHLMELVWCT-{βAla-βAla-cellulose}; disulfide 2-12 (inferred); not fully specified (N-terminus); printed as DCAWHLMELVWCT-(βA)(βA); reading uncertain)” here?
A: The value was 0.

Q: And the “Result for incubation with human IgG-Fc” value (human IgG-Fc)?
A: Its value is 0.

Q: And the “Result for incubation with serum albumin” value (serum albumin)?
A: Its value is 0.
